# Where two headings read alike, the source gives them in different places.
# Experiments:
# rat CB2 receptor (rCB2) = biological target: T1, rat CB2 receptor (rCB2) (Rattus norvegicus, UniProt Q9QZN9); assay: cell-based; type: cell-based; conditions: for +/− RCB2: agonist or inverse agonist at rCB2
# T1 sequence (Q9QZN9 1-360): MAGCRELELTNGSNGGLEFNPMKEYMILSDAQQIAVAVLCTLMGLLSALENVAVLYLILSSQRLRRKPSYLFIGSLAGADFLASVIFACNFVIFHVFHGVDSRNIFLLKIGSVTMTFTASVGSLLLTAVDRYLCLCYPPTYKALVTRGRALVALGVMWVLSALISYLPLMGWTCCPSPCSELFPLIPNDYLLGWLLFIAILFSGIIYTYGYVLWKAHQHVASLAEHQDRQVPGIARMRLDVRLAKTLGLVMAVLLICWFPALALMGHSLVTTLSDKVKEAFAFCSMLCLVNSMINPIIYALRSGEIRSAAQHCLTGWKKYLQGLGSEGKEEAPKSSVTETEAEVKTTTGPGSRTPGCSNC
# How it was run: (§1)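 First, cells in IBMX-containing HEPES-buffered HBSS are raised to elevated cAMP with 2-8 μM NKH-477 for 30 min. Data are normalised to the forskolin and forskolin + 1 μM CP55,940 controls.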
# [1] = biological target: human CB1 receptor (hCB1) (Homo sapiens, UniProt P21554); assay: cell-based; type: cell-based; conditions: for +/− HCB1: agonist or inverse agonist at hCB1
# How it was run: as §1
# [2] = groups >100 nM-10 μM and >10 μM, cAMP, CHO-K1 hCB1, read-out: EC50 HCB1
# Sequence of human CB1 receptor (hCB1) (P21554 whole entry): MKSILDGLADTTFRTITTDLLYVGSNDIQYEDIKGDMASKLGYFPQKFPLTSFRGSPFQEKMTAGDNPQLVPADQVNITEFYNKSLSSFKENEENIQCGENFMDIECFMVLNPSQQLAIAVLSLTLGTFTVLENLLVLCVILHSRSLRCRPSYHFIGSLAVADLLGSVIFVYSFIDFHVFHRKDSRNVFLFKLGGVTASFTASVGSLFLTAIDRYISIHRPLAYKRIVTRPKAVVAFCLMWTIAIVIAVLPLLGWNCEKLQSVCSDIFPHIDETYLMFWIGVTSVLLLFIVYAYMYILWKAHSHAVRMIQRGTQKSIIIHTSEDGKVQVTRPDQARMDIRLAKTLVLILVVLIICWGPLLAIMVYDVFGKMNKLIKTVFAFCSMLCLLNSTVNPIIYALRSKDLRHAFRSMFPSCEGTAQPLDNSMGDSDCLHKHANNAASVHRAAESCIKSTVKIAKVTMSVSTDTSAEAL
SMILES,+/− RCB2 (rat CB2 receptor (rCB2)),EC50 [1],also measured
"CNC(=O)[C@@H](NC(=O)c1nc(C(C)C(F)(F)F)n2c1CN(C)CCC2)C(C)(C)C (stereo partly drawn) [Compound 505, N-((S)-3,3-dimethyl-1-(methylamino)-1-oxobutan-2-yl)-8-methyl-3-(1,1,1-trifluoropropan-2-yl)-6,7,8,9-tetrahydro-5H-imidazo[1,5-a][1,4]diazepine-1-carboxamide]",+,,+/− HCB1 [1]: +
"CNC(=O)[C@@H](NC(=O)c1nc(-c2ccc(-c3ccccc3)cc2)n2c1CN(C)CC2)C(C)(C)C [Compound 265, (S)-3-(biphenyl-4-yl)-N-(3,3-dimethyl-1-(methylamino)-1-oxobutan-2-yl)-7-methyl-5,6,7,8-tetrahydroimidazo[1,5-a]pyrazine-1-carboxamide]",−,> 10000 nM,
"Cc1nnc(C)n1C1CCN(C(=O)c2nc(-c3ccc(Cl)cc3F)n3c2CN(C)CC3)CC1 [Compound 223, (3-(4-chloro-2-fluorophenyl)-7-methyl-5,6,7,8-tetrahydroimidazo[1,5-a]pyrazin-1-yl)(4-(3,5-dimethyl-4H-1,2,4-triazol-4-yl)piperidin-1-yl)methanone]",,> 10000 nM,EC50 (rat CB2 receptor (rCB2)): > 10000 nM
"O=C(NCC1CCOCC1)c1nc(-c2ccccc2)n2c1CN(C(=O)C1CCOC1)CC2 (centres unmarked) [Compound 135, 3-phenl-N-((tetrahydro-2H-pyran-4-yl)methyl)-7-(tetrahydrofuran-3-carbonyl)-5,6,7,8-tetrahydroimidazo[1,5-a]pyrazine-1-carboxamide]",,,"EC50 (rat CB2 receptor (rCB2); groups >100 nM-10 μM and >10 μM, cAMP, CHO-K1 rCB2, read-out: EC50 RCB2): > 10000 nM; EC50 [1, 2]: > 10000 nM"
"CN1CCCn2c(-c3cc(Cl)c(F)cc3F)nc(C(=O)N[C@@H](CC(C)(C)C)C(N)=O)c2C1 [Compound 591, (S)-N-(1-amino-4,4-dimethyl-1-oxopentan-2-yl)-3-(5-chloro-2,4-difluorophenyl)-8-methyl-6,7,8,9-tetrahydro-5H-imidazo[1,5-a][1,4]diazepine-1-carboxamide]",+,,+/− HCB1 [1]: +
"CNC(=O)[C@@H](NC(=O)c1nc(-c2ccc(F)c(C#N)c2)n2c1CN(C)CCC2)C(C)(C)C [Compound 425, (S)-3-(3-cyano-4-fluorophenyl)-N-(3,3-dimethyl-1-(methylamino)-1-oxobutan-2-yl)-8-methyl-6,7,8,9-tetrahydro-5H-imidazo[1,5-a][1,4]diazepine-1-carboxamide]",+,> 10000 nM,
"CNC(=O)[C@H](CC(C)(C)C)NC(=O)c1nc(-c2cc(Cl)ccc2F)n2c1CN(C)CCC2 [Compound 545, (S)-3-(5-chloro-2-fluorophenyl)-N-(4,4-dimethyl-1-(methylamino)-1-oxopentan-2-yl)-8-methyl-6,7,8,9-tetrahydro-5H-imidazo[1,5-a][1,4]diazepine-1-carboxamide]",+,,+/− HCB1 [1]: +
"CNC(=O)[C@@H](NC(=O)c1nc(-c2cc(F)c(F)c(F)c2)n2c1CN(C)CCC2)C(C)(C)C [Compound 375, (S)-N-(3,3-dimethyl-1-(methylamino)-1-oxobutan-2-yl)-8-methyl-3-(3,4,5-trifluorophenyl)-6,7,8,9-tetrahydro-5H-imidazo[1,5-a][1,4]diazepine-1-carboxamide]",+,> 10000 nM,
"CC(C)CN1CCn2c(-c3ccccc3)nc(C(=O)NN3CCCCC3)c2C1 [Compound 155, 7-isobutyl-3-phenyl-N-(piperidin-1-yl)-5,6,7,8-tetrahydroimidazo[1,5-a]pyrazine-1-carboxamide]",−,> 10000 nM,
"CCN1CCn2c(-c3ccccc3)nc(C(=O)N[C@H](C(=O)NC)C(C)(C)C)c2C1 [Compound 149, (S)-N-(3,3-dimethyl-1-(methyalmino)-1-oxobutan-2-yl)-7-ethyl-3-phenyl-5,6,7,8-tetrahydroimidazo[1,5-a]pyrazine-1-carboxamide]",−,> 10000 nM,
"CNC(=O)[C@@H](NC(=O)c1nc(-c2ccccc2C(C)C)n2c1CN(C)CCC2)C(C)(C)C [Compound 403, (S)-N-(3,3-dimethyl-1-(methylamino)-1-oxobutan-2-yl)-3-(2-isopropylphenyl)-8-methyl-6,7,8,9-tetrahydro-5H-imidazo[1,5-a][1,4]diazepine-1-carboxamide]",+,> 10000 nM,
"CNC(=O)[C@@H](NC(=O)c1nc(-c2ccccc2)n2c1CN(C(C)C)CCC2)C(C)(C)C [Compound 319, (S)-N-(3,3-dimethyl-1-(methylamino)-1-oxobutan-2-yl)-8-isopropyl-3-phenyl-6,7,8,9-tetrahydro-5H-imidazo[1,5-a][1,4]diazepine-1-carboxamide]",,> 10000 nM,EC50 (rat CB2 receptor (rCB2)): > 10000 nM
"COC(=O)N1CCn2c(-c3ccccc3)nc(C(=O)N[C@@H](C)c3ccccc3)c2C1 [Compound 179, (S)-methyl 3-phenyl-1-(1-phenylethylcarbamoyl)-5,6-dihydroimidazo[1,5-a]pyrazine-7(8H)-carboxylate]",−,> 10000 nM,
"CNC(=O)[C@@H](NC(=O)c1nc(-c2cn[nH]c2)n2c1CN(C)CCC2)C(C)(C)C [Compound 432, (S)-N-(3,3-dimethyl-1-(methylamino)-1-oxobutan-2-yl)-8-methyl-3-(1H-pyrazol-4-yl)-6,7,8,9-tetrahydro-5H-imidazo[1,5-a][1,4]diazepine-1-carboxamide]",+,> 10000 nM,
"CNC(=O)[C@@H](NC(=O)c1nc(-c2ccsc2)n2c1CN(Cc1cncnc1)CC2)C(C)(C)C [Compound 76, (S)-N-(3,3-dimethyl-1-(methylamino)-1-oxobutan-2-yl)-7-(pyrimidin-5-ylmethyl)-3-(thiophen-3-yl)-5,6,7,8-tetrahydroimidazo[1,5-a]pyrazine-1-carboxamide]",+,> 10000 nM,
"CC(C)NC(=O)N1CCn2c(-c3ccccc3)nc(C(=O)NC3C4(C)CCC(C4)C3(C)C)c2C1 (centres unmarked) [Compound 171, N7-isopropyl-3-phenyl-N1-(1,3,3-trimethylbicyclo[2.2.1]heptan-2-yl)-5,6-dihydroimidazo[1,5-a]pyrazine-1,7(8H)-dicarboxamide]",−,> 10000 nM,
CNC(=O)[C@H](CC(C)C)NC(=O)c1nc(-c2cc(F)c(F)cc2F)n2c1CN(C)CCC2 [Compound 538],+,,+/− HCB1 [1]: +
"CN1CCn2c(-c3ccccc3)nc(C(=O)NCCCO)c2C1 [Compound 229, N-(3-hydroxypropyl)-7-methyl-3-phenyl-5,6,7,8-tetrahydroimidazo[1,5-a]pyrazine-1-carboxamide]",,> 10000 nM,EC50 (rat CB2 receptor (rCB2)): > 10000 nM
"CNC(=O)[C@@H](NC(=O)c1nc(-c2cc(Cl)ccc2F)n2c1CN(C)CCC2)C(C)(C)C [Compound 361, (S)-3-(5-chloro-2-fluorophenyl)-N-(3,3-dimethyl-1-(methylamino)-1-oxobutan-2-yl)-8-methyl-6,7,8,9-tetrahydro-5H-imidazo[1,5-a][1,4]diazepine-1-carboxamide]",+,,+/− HCB1 [1]: +
"CNC(=O)[C@@H](NC(=O)c1nc(-c2ccc(NS(C)(=O)=O)cc2)n2c1CN(C)CCC2)C(C)(C)C [Compound 420, (S)-N-(3,3-dimethyl-1-(methylamino)-1-oxobutan-2-yl)-8-methyl-3-(4-(methylsulfonamido)phenyl)-6,7,8,9-tetrahydro-5H-imidazo[1,5-a][1,4]diazepine-1-carboxamide]",−,> 10000 nM,
"CN1CCCn2c(-c3ccc(Cl)c(F)c3)nc(C(=O)N[C@H](C(=O)N(C)C)C(C)(C)C)c2C1 [Compound 560, (S)-3-(4-chloro-3-fluorophenyl)-N-(1-(dimethylamino)-3,3-dimethyl-1-oxobutan-2-yl)-8-methyl-6,7,8,9-tetrahydro-5H-imidazo[1,5-a][1,4]diazepine-1-carboxamide]",+,,+/− HCB1 [1]: +
"CCN1CCn2c(-c3ccccc3)nc(C(=O)NCC3CCOCC3)c2C1 [Compound 168, 7-ethyl-3-phenyl-N-((tetrahydro-2H-pyran-4-yl)methyl)-5,6,7,8-tetrahydroimidazo[1,5-a]pyrazine-1-carboxamide]",−,> 10000 nM,
"CC(C)C[C@H](NC(=O)c1nc(-c2cccc(F)c2)n2c1CN(C)CCC2)C(N)=O [Compound 566, (S)-N-(1-amino-4-methyl-1-oxopentan-2-yl)-3-(3-fluorophenyl)-8-methyl-6,7,8,9-tetrahydro-5H-imidazo[1,5-a][1,4]diazepine-1-carboxamide]",+,> 10000 nM,
"C[C@H](NC(=O)c1nc(-c2ccccc2)n2c1CN(C(=O)OC(C)(C)C)CC2)c1ccccc1 [Compound 31, (S)-tert-butyl 3-phenyl-1-(1-phenylethylcarbamoyl)-5,6-dihydroimidazo[1,5-a]pyrazine-7(8H)-carboxylate]",−,,"EC50 [1, 2]: > 10000 nM"
"CNC(=O)[C@@H](NC(=O)c1nc(-c2ccncc2)n2c1CN(C)CCC2)C(C)(C)C [Compound 402, (S)-N-(3,3-dimethyl-1-(methylamino)-1-oxobutan-2-yl)-8-methyl-3-(pyridin-4-yl)-6,7,8,9-tetrahydro-5H-imidazo[1,5-a][1,4]diazepine-1-carboxamide]",+,> 10000 nM,
